In ChEMBL document CHEMBL1932988, “Synthesis, antimicrobial, anticancer evaluation and QSAR studies of 6-methyl-4-[1-(2-substituted-phenylamino-acetyl)-1H-indol-3-yl]-2-oxo/thioxo-1,2,3,4-tetrahydropyrimidine-5-carboxylic acid ethyl esters” (Eur J Med Chem, 2012):
Values after ≈ are worked out from the molar mass of the structure shown. Values belong to the compound of their own block, whether it stands above or below them.

Legend:
Staphylococcus aureus [1] = assay: Antibacterial activity against Staphylococcus aureus MTCC 2901 after 24 hrs by tube dilution method; assay type: functional
Bacillus subtilis [2] = assay: Antibacterial activity against Bacillus subtilis MTCC 2063 after 24 hrs by tube dilution method; assay type: functional
Escherichia coli [3] = assay: Antibacterial activity against Escherichia coli MTCC 1652 after 24 hrs by tube dilution method; assay type: functional
Candida albicans [4] = assay: Antifungal activity against Candida albicans MTCC 227 after 48 hrs by tube dilution method; assay type: functional
Aspergillus niger [5] = assay: Antifungal activity against Aspergillus niger MTCC 8189 after 7 days by tube dilution method; assay type: functional
Staphylococcus aureus [6] = assay: Antibacterial activity against Staphylococcus aureus MTCC 2901 after 24 hrs followed by subculturing; assay type: functional
Bacillus subtilis [7] = assay: Antibacterial activity against Bacillus subtilis MTCC 2063 after 24 hrs by tube dilution method hrs followed by subculturing; assay type: functional
Escherichia coli [8] = assay: Antibacterial activity against Escherichia coli MTCC 1652 after 24 hrs by tube dilution method hrs followed by subculturing; assay type: functional
Candida albicans [9] = assay: Antifungal activity against Candida albicans MTCC 227 after 48 hrs by tube dilution method hrs followed by subculturing; assay type: functional
Aspergillus niger [10] = assay: Antifungal activity against Aspergillus niger MTCC 8189 after 7 days by tube dilution method hrs followed by subculturing; assay type: functional
Staphylococcus aureus [11] = assay: Ratio of MIC to MBC for Staphylococcus aureus MTCC 2901; assay type: functional
Bacillus subtilis [12] = assay: Ratio of MIC to MBC for Bacillus subtilis MTCC 2063; assay type: functional
Escherichia coli [13] = assay: Ratio of MIC to MBC for Escherichia coli MTCC 1652; assay type: functional
Candida albicans [14] = assay: Ratio of MIC to MFC for Candida albicans MTCC 227; assay type: functional
Aspergillus niger [15] = assay: Ratio of MIC to MFC for Aspergillus niger MTCC 8189; assay type: functional
[16] = Partition coefficient, log P of the compound; assay type: physicochemical; settings: octanol/water
MCF7 = assay: cells; settings: Homo sapiens, MCF7, 72 h
Description: Cytotoxicity against human MCF7 cells after 72 hrs by MTT assay

HCT-116 = assay: cells; settings: Homo sapiens, HCT-116, 72 h

logP [16]: 2.88
IC50 (MCF7): > 1000 µg/mL
IC50 (HCT-116): 130 µg/mL (≈ 263 µM)
SMILES: CCOC(=O)C1=C(C)NC(=S)NC1c1cn(C(=O)CNc2cccc([N+](=O)[O-])c2)c2ccccc12 (stereo unspecified)
-logMIC (Staphylococcus aureus [1]): 1.6
-logMIC (Bacillus subtilis [2]): 1.6
-logMIC (Escherichia coli [3]): 1.9
-logMIC (Candida albicans [4]): 1.6
-logMIC (Aspergillus niger [5]): 1.6
MBC (Staphylococcus aureus [6]): >0.1 uM/ml
MBC (Bacillus subtilis [7]): >0.1 uM/ml
MBC (Escherichia coli [8]): 0.1 uM/ml
MFC (Candida albicans [9]): >0.1 uM/ml
MFC (Aspergillus niger [10]): >0.1 uM/ml
Ratio (Staphylococcus aureus [11]): 3
Ratio (Bacillus subtilis [12]): 3
Ratio (Escherichia coli [13]): 3
Ratio (Candida albicans [14]): 3
Ratio (Aspergillus niger [15]): 3

logP [16]: 0.74
IC50 (MCF7): 2.5 µg/mL (≈ 5.59 µM)
IC50 (HCT-116): 300 µg/mL (≈ 670 µM)
SMILES: CCOC(=O)C1=C(C)NC(=O)NC1c1cn(C(=O)CNc2ccccc2N)c2ccccc12 (stereo unspecified)
-logMIC (Staphylococcus aureus [1]): 1.55
-logMIC (Bacillus subtilis [2]): 1.55
-logMIC (Escherichia coli [3]): 1.85
-logMIC (Candida albicans [4]): 1.55
-logMIC (Aspergillus niger [5]): 1.55
MBC (Staphylococcus aureus [6]): >0.11 uM/ml
MBC (Bacillus subtilis [7]): >0.11 uM/ml
MBC (Escherichia coli [8]): 0.11 uM/ml
MFC (Candida albicans [9]): >0.11 uM/ml
MFC (Aspergillus niger [10]): >0.11 uM/ml
Ratio (Staphylococcus aureus [11]): 3
Ratio (Bacillus subtilis [12]): 3
Ratio (Escherichia coli [13]): 3
Ratio (Candida albicans [14]): 3
Ratio (Aspergillus niger [15]): 3
